According to patent US8039514B2, “Sulfonamide compounds and use thereof” (Asahi Kasei Pharma Corporation, priority 2008, dated 2011):

B1: PTH: parathyroid hormone (PTH) preparation, a peptide preparation injected subcutaneously (peptide, UniProt P01270 32-115, looked up)
Parathyroid hormone: SVSEIQLMHNLGKHLNSMERVEWLRKKLQDVHNFVALGAPLAPRDAGSQRPRKKEDNVLVESHEKSLGEADKADVNVLTKAKSQ
modifications: Parathyroid hormone
notes: parathyroid hormone (PTH) preparation, a peptide preparation injected subcutaneously

Legend:
[1] = target: T1, human calcium-sensing receptor (CaSR) (Homo sapiens, UniProt P41180); experiment: intracellular Ca assay, CaSR antagonist activity in HEK293/hCaSR cells; format: cell-based; details: Fura2-AM, inhibition of response to calcium chloride ligand solution, read-out: IC50 values according to the intracellular Ca assay (CaSR antagonist activity)
T1 construct: expressed in transfected cells
T1 sequence (P41180 20-1078): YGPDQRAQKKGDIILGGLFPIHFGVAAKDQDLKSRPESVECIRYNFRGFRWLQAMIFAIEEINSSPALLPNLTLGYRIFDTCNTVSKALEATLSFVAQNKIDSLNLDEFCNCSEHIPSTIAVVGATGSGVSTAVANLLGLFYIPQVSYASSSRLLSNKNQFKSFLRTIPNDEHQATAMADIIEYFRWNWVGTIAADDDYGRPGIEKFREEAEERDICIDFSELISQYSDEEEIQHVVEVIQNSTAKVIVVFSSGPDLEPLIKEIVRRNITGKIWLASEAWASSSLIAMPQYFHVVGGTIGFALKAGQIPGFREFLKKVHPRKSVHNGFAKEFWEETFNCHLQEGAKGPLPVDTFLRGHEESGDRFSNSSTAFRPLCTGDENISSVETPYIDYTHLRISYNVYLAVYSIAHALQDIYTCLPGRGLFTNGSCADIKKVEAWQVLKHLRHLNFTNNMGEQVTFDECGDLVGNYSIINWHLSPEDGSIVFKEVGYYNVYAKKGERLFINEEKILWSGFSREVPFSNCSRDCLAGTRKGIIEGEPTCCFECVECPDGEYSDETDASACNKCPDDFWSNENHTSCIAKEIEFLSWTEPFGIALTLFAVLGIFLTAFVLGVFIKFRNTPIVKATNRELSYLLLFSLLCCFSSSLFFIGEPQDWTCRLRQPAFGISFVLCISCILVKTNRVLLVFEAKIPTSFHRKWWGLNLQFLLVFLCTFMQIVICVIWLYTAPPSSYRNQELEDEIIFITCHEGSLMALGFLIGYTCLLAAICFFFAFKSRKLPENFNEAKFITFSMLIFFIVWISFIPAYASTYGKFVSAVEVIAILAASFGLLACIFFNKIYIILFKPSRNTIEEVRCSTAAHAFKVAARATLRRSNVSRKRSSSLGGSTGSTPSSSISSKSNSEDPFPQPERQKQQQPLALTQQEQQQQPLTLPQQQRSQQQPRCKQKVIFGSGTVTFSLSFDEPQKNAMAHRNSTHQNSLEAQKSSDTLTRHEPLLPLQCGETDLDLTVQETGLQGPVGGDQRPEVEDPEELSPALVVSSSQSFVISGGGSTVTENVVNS
Summary of the method: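 HEK293/hCaSR cells were loaded with Fura2-AM and pre-incubated with compound for 160 s at 37° C in HEPES buffer (pH 7.4, 0.8 mM CaCl2), then challenged with calcium ligand solution. Read-out was the peak 340/380 nm fluorescence ratio; inhibition is relative to no-compound (0%) and no-calcium-ligand (100%) controls.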

[2] = test system: PTH concentration in blood; format: in vivo; details: for death or abnormality of the rat administered with the compounds: 0.1-100 mg/kg intravenous or oral; for PTH concentration in blood after 30 minutes / dose dependence of PTH concentration increase / PTH concentration in blood 5 minutes after the intravenous administration: rat, 0.1-100 mg/kg; for PTH concentration in blood 5 minutes after the intravenous administration: Rat Intact PTH ELISA, versus normal value
Procedure: Compounds of Exp. 3-49, Exp. 3-57, Exp. 3-93, Exp. 3-95, Exp. 3-102, Exp. 3-106, Exp. 8-5, Exp. 10-1 and Exp. 10-25 were chosen as a test compound. Each of them was either dissolved or suspended in physiological saline or distilled water containing 1-20% DMSO, 5% CremophorEL, 10-40% PEG300, etc. and administered intravenously (tail vein or femoral vein) or orally administered to a 7 week to 10 week old male SD-IGS rat (Nippon Charles-River) with dosage of 0.1-100 mg/kg. After that, blood sample was taken from subclavian vein over the time and serum was separated. Concentration of PTH in blood was measured using Rat Intact PTH ELISA Kit (manufactured by Immutopics) to evaluate an activity of increasing PTH concentration in blood. […] Therefore, the safety of these compounds was confirmed again.

[3] = oral everyday for eight weeks, rat with removed ovary; cited from earlier work
[4] = test system: PTH concentration in blood; details: single oral administration, rat; cited from earlier work
[5] = PTH 20 μg subcutaneous everyday; ALN 10 mg oral everyday; cited from earlier work
[6] = 20 μg subcutaneously everyday for 19 months in average; cited from earlier work

Molecule | IC50 [1] [nM] | death or abnormality of the rat administered with the compounds [2] | PTH concentration in blood after 30 minutes [2] | dose dependence of PTH concentration increase [2] | PTH concentration in blood 5 minutes after the intravenous administration [2] | other results
CN(C[C@H](O)CNC(C)(C)CC1Cc2ccccc2C1)S(=O)(=O)c1cccc(-c2cccc(C(=O)O)c2)c1 [Exp. 3-49, (R)-3′-(N-(3-(1-(2,3-dihydro-1H-inden-2-yl)-2-methylpropan-2-ylamino)-2-hydroxypropyl)-N-methylsulfamoyl)biphenyl-3-carboxylic acid] | ≤ 300 | no death or abnormality was found | returned to a normal value | dependent on the administration amount of the compound | increased at least twice the normal value | –
CN(C[C@H](O)CNC(C)(C)CC1Cc2ccccc2C1)S(=O)(=O)c1cccc(-c2ccc(CCC(=O)O)cc2)c1 [Exp. 3-57, (R)-3-(3′ (N-(3-(1-(2,3-dihydro-1H-inden-2-yl)-2-methylpropan-2-ylamino)-2-hydroxypropyl)-N-methylsulfamoyl)biphenyl-4-yl)propionic acid] | 300 to 1000 | no death or abnormality was found | returned to a normal value | dependent on the administration amount of the compound | increased at least twice the normal value | –
CN(C[C@H](O)CNC(C)(C)CC1Cc2ccccc2C1)S(=O)(=O)c1cc(-c2ccc(CCC(=O)O)cc2)cc(C(F)(F)F)c1 [Exp. 3-93, (R)-3-(3′-(N-(3-(1-(2,3-dihydro-1H-inden-2-yl)-2-methylpropan-2-ylamino)-2-hydroxypropyl)-N-methylsulfamoyl)-5′-(trifluoromethyl)biphenyl-4-yl)propionic acid] | ≤ 300 | no death or abnormality was found | returned to a normal value | dependent on the administration amount of the compound | increased at least twice the normal value | –
CN(C[C@H](O)CNC(C)(C)Cc1ccc(Cl)c(F)c1)S(=O)(=O)c1cc(-c2ccc(CCC(=O)O)cc2)cc(C(F)(F)F)c1 [Exp. 3-95, (R)-3-(3′-(N-(3-(1-(4-chloro-3-fluorophenyl)-2-methylpropan-2-ylamino)-2-hydroxypropyl)-N-methylsulfamoyl)-5′-(trifluoromethyl)biphenyl-4-yl)propionic acid] | – | no death or abnormality was found | returned to a normal value | dependent on the administration amount of the compound | increased at least twice the normal value | –
CCc1cc(-c2ccc(CCC(=O)O)cc2)ccc1S(=O)(=O)N(C)C[C@H](O)CNC(C)(C)CC1Cc2ccccc2C1 [Exp. 3-102, (R)-3-(4′-(N-(3-(1-(2,3-dihydro-1H-inden-2-yl)-2-methylpropan-2-ylamino)-2-hydroxypropyl)-N-methylsulfamoyl)-3′-ethylbiphenyl-4-yl)propionic acid] | – | no death or abnormality was found | returned to a normal value | dependent on the administration amount of the compound | increased at least twice the normal value | –
CN(C[C@H](O)CNC(C)(C)CC1Cc2ccccc2C1)S(=O)(=O)c1ccc(-c2ccc(CCC(=O)O)cc2)c(Cl)c1 [Exp. 3-106, (R)-3-(2′-chloro-4′-(N-(3-(1-(2,3-dihydro-1H-inden-2-yl)-2-methylpropan-2-ylamino)-2-hydroxypropyl)-N-methylsulfamoyl)biphenyl-4-yl)propionic acid] | ≤ 300 | no death or abnormality was found | returned to a normal value | dependent on the administration amount of the compound | increased at least twice the normal value | –
CN(C[C@H](O)CNC(C)(C)CCCc1ccccc1)S(=O)(=O)c1cc(CCC(=O)O)cc(C(F)(F)F)c1 [Exp. 8-5, (R)-3-(3-(N-(2-hydroxy-3-(2-methyl-5-phenylpentan-2-ylamino)propyl)-N-methylsulfamoyl)-5-(trifluoromethyl)phenyl)propionic acid] | ≤ 300 | no death or abnormality was found | returned to a normal value | dependent on the administration amount of the compound | increased at least twice the normal value | –
CN(C[C@H](O)CNC(C)(C)CC1Cc2ccccc2C1)S(=O)(=O)c1cc(CCC(=O)O)cc(C(F)(F)F)c1 [Exp. 10-1, (R)-3-(3-(N-(3-(1-(2,3-dihydro-1H-inden-2-yl)-2-methylpropan-2-ylamino)-2-hydroxypropyl)-N-methylsulfamoyl)-5-(trifluoromethyl)phenyl)propionic acid] | – | no death or abnormality was found | returned to a normal value | dependent on the administration amount of the compound | increased at least twice the normal value | –
CN(C[C@H](O)CNC(C)(C)CC1Cc2ccccc2C1)S(=O)(=O)c1cc(CCCC(=O)O)cc(C(F)(F)F)c1 [Exp. 10-25, (R)-4-(3-(N-(3-(1-(2,3-dihydro-1H-inden-2-yl)-2-methylpropan-2-ylamino)-2-hydroxypropyl)-N-methylsulfamoyl)-5-(trifluoromethyl)phenyl)butanoic acid] | – | no death or abnormality was found | returned to a normal value | dependent on the administration amount of the compound | increased at least twice the normal value | –
CC(C)(Cc1ccc2ccccc2c1)NC[C@@H](O)COc1cccc(Cl)c1C#N [NPS2143] | – | – | – | – | – | bone formation evaluated by bone morphometry [3]: increased; bone mineral density [3]: remained almost the same; PTH concentration in blood [4]: continuously increased
B1 | – | – | – | – | – | increase of bone mineral density of lumbar spine 18 months after the administration [5]: 10.3%; bone mineral density increase in lumbar spine [6]: 9.7%; bone mineral density increase in neck of femur [6]: 2.8%; inhibition of frequency of occurrence of new vertebral body fracture [6]: 65%; inhibition of frequency of occurrence of non-vertebral body fracture [6]: 53%
